Results published in PMC11489226 (Archives of Toxicology, 2024).
“And” between values parts separate entries of the source, which are not always exact repeats. Equal entries are not always repeated.

How the values were obtained:
CYP2E1 = CYP2E1 (Homo sapiens, UniProt P05181); test: Metabolism in transgenic HEK293 cells expressing CYP2E1; conditions: 20 µM parent PCB, 24 h, supernatant
Experimental: (§1) For the generation of transgenic cell lines, we used semi-adherent HEK293 cells (DSMZ, ACC305, human embryonic kidney cells) which were cultured on a daily basis in DMEM medium supplemented with 10% (FCS) and 1% penicillin/streptomycin. In a first step CYP1A2, CYP2C8, CYP2C9, CYP3A4, CYP2A6, and CYP2E1 cDNA were cloned into the plasmid pcDNATM3.1/V5-His TOPO® using human liver RNA as a template and using the following primers: CYP1A2 for5′-[…]-3′, CYP1A2 rev 5′-[…]-3′; CYP2C8 for 5′-[…]-3′, CYP2C8 rev 5′-[…]-3′; CYP2C9 for 5′-[…]-3′, CYP2C9 rev 5′-[…]-3′; CYP3A4 for 5′-[…]-3′, CYP3A4 rev 5′-[…]-3′, CYP2A6 for 5′-[…]-3′, CYP2A6 rev 5′-[…]-3′; CYP2E1 for 5′-[…]-3′, CYP2E1 rev 5′-[…]-3′. Final constructs were verified with Sanger DNA sequencing and restriction digestion. For transfection, 3 × 10^6 HEK293 cells were pre-incubated in a 10 cm dish in DMEM medium with 10% FCS, but without antibiotics, for 18 to 24 h. When the cells reached approximately 70% confluency, they were transfected using TransIT-LT1 transfection reagent (Biozol, Eiching, Germany). The TransIT-LT1 reagent was warmed to room temperature and vortexed. 1.63 mL Opti-MEM, 16.25 µL plasmid DNA (1 µg/µL), and 48.75 µL TransIT-LT1 reagent were mixed and incubated for 15 to 30 min. The mixture was then added dropwise to the medium of the cells, and the cells were incubated again at 37 °C and 5% CO2. After 24 h, the medium was replaced with standard medium and geneticin was added for selection (1 mg/mL). Cells were selected for 6–8 weeks in bulk culture, and single cell clones were obtained subsequently by limiting dilution. Each clone was checked for insertion by PCR using genomic DNA as a template.
(§2) Parallel samples were run without the addition of PCBs. At a confluence of 80%, PCBs (20 μM each, dissolved in ethanol) were added and cells were incubated for 24 h before harvest of supernatants. Supernatants were diluted 1:2 with 80 μL acetate buffer 0.1 M (pH = 5.3). 100 μL of this dilution were further incubated with 100 μL of ammonium acetate buffer 0.1 M (pH = 5.3) and 5 μL of β-Glucuronidase/Arylsulfatase enzyme overnight in a drying oven at 37 °C for enzymatic hydrolysis to release conjugated compounds. 50 μL of a mix of internal standards (10 ng/mL) and 600 μL of methanol were added to the samples, then mixed by vortexing for 1 min and centrifuged for 10 min at 3400g. The individual supernatants were transferred to glass LC vials and evaporated to approximately 50 μL at 45 °C under a gentle stream of nitrogen. Finally, 0.1 mol/ L ammonium acetate buffer was added to a final volume of 100 μL and then transferred to an insert for analysis.
(§3) HEK293 cells overexpressing the respective CYP enzymes were seeded onto 6-well plates and were treated with or without 10 µM of the respective probe drug in DMEM medium for 24 hours at 37 °C and 5 % CO2. After incubation 200 µL DMEM were collected, cells were washed with PBS and adherent cells were lysed in 500 µL methanol for 20 minutes. Analytes were measured by LC-MS/MS either in methanol cell lysates or in DMEM supernatant.
(§4) 50 µL of DMEM samples were protein precipitated by adding 200 µL of methanol and were centrifuged for 20 min, 17,000 g and 4°C. Supernatants were diluted in water or 40 % methanol according to dilution factor. Methanol cell lysates were diluted ½ with water and centrifuged for 20 min, 17,000 g and 4°C. 5 µL of the processed samples were injected for LC-MS analysis.

CYP3A4 = CYP3A4 (Homo sapiens, UniProt P08684); test: Metabolism in transgenic HEK293 cells expressing CYP3A4; conditions: 24 h; for Quantification of metabolites generated from PCB28, 52, and 101: 20 µM parent PCB, supernatant
CYP3A4, sequence (P08684 whole entry): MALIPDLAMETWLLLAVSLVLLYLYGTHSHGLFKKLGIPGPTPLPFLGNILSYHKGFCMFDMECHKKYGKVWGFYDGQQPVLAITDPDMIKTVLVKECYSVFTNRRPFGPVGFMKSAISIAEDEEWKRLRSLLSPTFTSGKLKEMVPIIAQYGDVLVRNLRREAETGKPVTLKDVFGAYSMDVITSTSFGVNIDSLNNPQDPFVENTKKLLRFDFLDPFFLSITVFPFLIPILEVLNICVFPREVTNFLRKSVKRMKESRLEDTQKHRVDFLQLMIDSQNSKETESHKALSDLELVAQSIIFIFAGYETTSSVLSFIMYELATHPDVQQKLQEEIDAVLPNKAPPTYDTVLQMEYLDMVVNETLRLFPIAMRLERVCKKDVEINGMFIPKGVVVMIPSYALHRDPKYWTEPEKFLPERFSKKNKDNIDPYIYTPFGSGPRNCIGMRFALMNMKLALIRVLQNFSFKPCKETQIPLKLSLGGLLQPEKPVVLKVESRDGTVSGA
Experimental: as §1, §2, §3, §4

CYP2A6 = molecular target: T1, CYP2A6 (Homo sapiens, UniProt P11509); test: Metabolism in transgenic HEK293 cells expressing CYP2A6; type: in vitro ADME; set-up: V5-His (vector-encoded) (C); expressed in transfected cells; conditions: 24 h; for Quantification of metabolites generated from PCB28, 52, and 101 / Metabolite concentration formed, range across cell clones: 20 µM parent PCB; for Quantification of metabolites generated from PCB28, 52, and 101: supernatant; for Metabolite concentration formed, range across cell clones: HEK293CYP2A6 cell lines
T1 sequence (P11509 1-494): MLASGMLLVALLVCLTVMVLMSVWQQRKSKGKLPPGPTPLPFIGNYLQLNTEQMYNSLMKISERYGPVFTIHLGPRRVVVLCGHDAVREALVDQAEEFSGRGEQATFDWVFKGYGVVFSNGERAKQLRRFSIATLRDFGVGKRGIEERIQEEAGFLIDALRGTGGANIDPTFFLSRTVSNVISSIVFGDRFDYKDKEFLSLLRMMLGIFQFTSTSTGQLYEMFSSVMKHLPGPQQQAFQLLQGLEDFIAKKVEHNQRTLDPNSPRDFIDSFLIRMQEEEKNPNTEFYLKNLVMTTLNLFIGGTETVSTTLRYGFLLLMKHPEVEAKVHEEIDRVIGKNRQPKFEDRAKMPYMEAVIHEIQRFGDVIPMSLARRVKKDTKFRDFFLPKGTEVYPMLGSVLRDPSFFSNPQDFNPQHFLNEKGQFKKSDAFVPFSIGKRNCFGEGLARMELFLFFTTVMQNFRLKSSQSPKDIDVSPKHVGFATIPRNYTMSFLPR
Experimental: as §1, §2, §3, §4

[1] = PCB concentrations in plasma of HELPcB participants (2010); type: in vivo, human; conditions: sample of 2010; for concentration at 2010 calendar year / concentration at 2010 calendar year of sampling: human, plasma, other: occupational exposure

CYP2E1, sequence (P05181 whole entry): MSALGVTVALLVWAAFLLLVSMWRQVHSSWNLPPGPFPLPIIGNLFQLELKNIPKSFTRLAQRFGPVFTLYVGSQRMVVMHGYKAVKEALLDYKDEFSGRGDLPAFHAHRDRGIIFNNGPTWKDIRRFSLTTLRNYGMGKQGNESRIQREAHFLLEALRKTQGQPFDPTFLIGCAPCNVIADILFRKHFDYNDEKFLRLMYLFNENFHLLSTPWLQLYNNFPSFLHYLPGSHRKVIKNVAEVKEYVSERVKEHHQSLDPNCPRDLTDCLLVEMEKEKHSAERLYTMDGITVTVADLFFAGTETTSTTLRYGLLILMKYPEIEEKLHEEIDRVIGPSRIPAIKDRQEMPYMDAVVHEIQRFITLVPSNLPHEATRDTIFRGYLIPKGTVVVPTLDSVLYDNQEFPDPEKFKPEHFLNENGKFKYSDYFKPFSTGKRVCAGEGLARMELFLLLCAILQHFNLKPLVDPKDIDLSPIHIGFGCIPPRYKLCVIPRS

SMILES: Oc1cc(Cl)c(-c2cc(Cl)c(Cl)cc2Cl)cc1Cl [4´-OHCB101, 2,2′,4,5,5′-Pentachloro-4′-biphenylol]
- Quantification of metabolites generated from PCB28, 52, and 101 (CYP2E1; CYP2E1 Clone B4): 3,84 nM
- Quantification of metabolites generated from PCB28, 52, and 101 (CYP2E1; CYP2E1 Clone B5): 4,02 nM
- Quantification of metabolites generated from PCB28, 52, and 101 (CYP2E1; CYP2E1 Clone E6): 5,08 nM
- Quantification of metabolites generated from PCB28, 52, and 101 (CYP3A4; CYP3A4 Clone D10): <LOQ
- Quantification of metabolites generated from PCB28, 52, and 101 (CYP3A4; CYP3A4 Clone E6): <LOQ
- Quantification of metabolites generated from PCB28, 52, and 101 (CYP2A6; CYP2A6 Clone B7): 441,30 nM
- Quantification of metabolites generated from PCB28, 52, and 101 (CYP2A6; CYP2A6 Clone C4): 272,55 nM
- Quantification of metabolites generated from PCB28, 52, and 101 (CYP2A6; CYP2A6 Clone C5): 55,93 nM
- Metabolite concentration formed, range across cell clones (CYP2A6): 19.15- 151.1 µg/L and 55.93–441.3 nM

SMILES: Clc1cc(Cl)c(-c2cc(Cl)c(Cl)c(Cl)c2Cl)cc1Cl [PCB180]
- concentration at 2010 calendar year ([1]; HELPcB participant AD): 1.16 ng/mL
- concentration at 2010 calendar year ([1]; HELPcB participant AE): 1.28 ng/mL
- concentration at 2010 calendar year ([1]; HELPcB participant eight): 0.377 ng/mL
- concentration at 2010 calendar year ([1]; HELPcB participant five): 0.951 ng/mL
- concentration at 2010 calendar year ([1]; HELPcB participant four): 0.508 ng/mL
- concentration at 2010 calendar year of sampling ([1]; HELPcB participant one): 0.998 ng/mL
- concentration at 2010 calendar year ([1]; HELPcB participant seven): 0.934 ng/mL
- concentration at 2010 calendar year ([1]; HELPcB participant six): 8.85 ng/mL
- concentration at 2010 calendar year ([1]; HELPcB participant three): 0.95 ng/mL
- concentration at 2010 calendar year of sampling ([1]; HELPcB participant two): 0.612 ng/mL

SMILES: Clc1cc(Cl)c(-c2ccc(Cl)c(Cl)c2Cl)cc1Cl [PCB138]
- Concentration in plasma ([1]; HELPcB participant AD): 0.984 ng/mL
- Concentration in plasma ([1]; HELPcB participant AE): 0.773 ng/mL
- Concentration in plasma ([1]; HELPcB participant eight): 0.358 ng/mL
- Concentration in plasma ([1]; HELPcB participant five): 1.886 ng/mL
- Concentration in plasma ([1]; HELPcB participant four): 0.610 ng/mL
- Concentration in plasma ([1]; HELPcB participant one): 2.083 ng/mL
- Concentration in plasma ([1]; HELPcB participant seven): 0.738 ng/mL
- Concentration in plasma ([1]; HELPcB participant six): 14.883 ng/mL
- Concentration in plasma ([1]; HELPcB participant three): 1.047 ng/mL
- Concentration in plasma ([1]; HELPcB participant two): 0.718 ng/mL

SMILES: Clc1cc(Cl)c(-c2cc(Cl)c(Cl)cc2Cl)cc1Cl [PCB153]
- Concentration in plasma ([1]; HELPcB participant AD): 1.397 ng/mL
- Concentration in plasma ([1]; HELPcB participant AE): 1.227 ng/mL
- Concentration in plasma ([1]; HELPcB participant eight): 0.59 ng/mL
- Concentration in plasma ([1]; HELPcB participant five): 1.765 ng/mL
- Concentration in plasma ([1]; HELPcB participant four): 0.855 ng/mL
- Concentration in plasma ([1]; HELPcB participant one): 1.907 ng/mL
- Concentration in plasma ([1]; HELPcB participant seven): 1.081 ng/mL
- Concentration in plasma ([1]; HELPcB participant six): 15.630 ng/mL
- Concentration in plasma ([1]; HELPcB participant three): 1.254 ng/mL
- Concentration in plasma ([1]; HELPcB participant two): 0.945 ng/mL

SMILES: Oc1cc(Cl)cc(-c2cc(Cl)c(Cl)cc2Cl)c1Cl [3´-OHCB101, 2,2′,4,5,5′-pentachloro-3′-biphenylol]
- Quantification of metabolites generated from PCB28, 52, and 101 (CYP2E1; CYP2E1 Clone B4): <LOQ
- Quantification of metabolites generated from PCB28, 52, and 101 (CYP2E1; CYP2E1 Clone B5): <LOQ
- Quantification of metabolites generated from PCB28, 52, and 101 (CYP2E1; CYP2E1 Clone E6): <LOQ
- Quantification of metabolites generated from PCB28, 52, and 101 (CYP3A4; CYP3A4 Clone D10): <LOQ
- Quantification of metabolites generated from PCB28, 52, and 101 (CYP3A4; CYP3A4 Clone E6): <LOQ
- Quantification of metabolites generated from PCB28, 52, and 101 (CYP2A6; CYP2A6 Clone B7): 39,4 nM
- Quantification of metabolites generated from PCB28, 52, and 101 (CYP2A6; CYP2A6 Clone C4): 24,09 nM
- Quantification of metabolites generated from PCB28, 52, and 101 (CYP2A6; CYP2A6 Clone C5): 4,2 nM
- Metabolite concentration formed, range across cell clones (CYP2A6): 1.44–13.5 µg/L and 4.2–39.4 nM

SMILES: Cc1ncc2n1-c1ccc(Cl)cc1C(c1ccccc1F)=NC2 [Midazolam, reference compound]
- Conversion product (CYP3A4; HEK293CYP3A4, 10 µM substrate): 1-hydroxy-midazolam

SMILES: O=c1ccc2ccccc2o1 [Coumarin, reference compound]
- Conversion product (CYP2A6; HEK293CYP2A6, 10 µM substrate): 7-hydroxycoumarin
